Test system: Powdery mildew
Test: Powdery mildew on whole Bell pepper plants
Type: in vivo
Conditions: 1000 spores, evaluated every 24 hours for 3 days
Procedure: Bell pepper plants where obtained at 4 weeks, replanted and acclimatized (22-28° C., 16 hour light). • ii. Plants where divided between treated plants: present formulation/active agent (thyme oil 0.1%)+Soap, negative control plants (no active fungicide) and a positive control (Penconazole, Ophir 2000). The plants were treated on 4 leafs, at 6 places on each leaf, with a solution containing 1000 spores. Infected plants were preserved in a moist environment. • iii. Fungi infestation was evaluated every 24 hours for 3 days: • i. Treated: 55% of leafs where infected; • ii. Negative control: 97.5 of leafs where infected • iii. Positive control: 40% of leafs where infected

## CCCC(Cn1cncn1)c1ccc(Cl)cc1Cl (stereo not shown) [Penconazole]
  leafs infected: 40%
